US20260297085A1, “1 H-PYRROLO[2,3-B]PYRIDIN-4-YL]-2-OXOPYRROLIDINE-3-CARBONITRILE DERIVATIVES AS TYROSINE KINASE 2 (TYK2) INHIBITORS FOR THE TREATMENT OF INFLAMMATORY DISEASES” (BIOGEN MA INC., priority 2023, published 2026)
Where a name gives a salt, the structure may show the parent alone.

Key:
[1] = biological target: T1, human JAK1 kinase domain (JH1) (Homo sapiens, UniProt P23458); assay: JH1 biochemical assay for JAK1 (ADP-Glo kinase assay, recombinant JH1 catalytic domain, JAK3-342 peptide, 35 μM ATP)
T1 construct: recombinantly generated catalytic kinase (also known as JH1) domain of human JAK1, JAK2, JAK3 and TYK2
T1 sequence (P23458 875-1153 limits assumed): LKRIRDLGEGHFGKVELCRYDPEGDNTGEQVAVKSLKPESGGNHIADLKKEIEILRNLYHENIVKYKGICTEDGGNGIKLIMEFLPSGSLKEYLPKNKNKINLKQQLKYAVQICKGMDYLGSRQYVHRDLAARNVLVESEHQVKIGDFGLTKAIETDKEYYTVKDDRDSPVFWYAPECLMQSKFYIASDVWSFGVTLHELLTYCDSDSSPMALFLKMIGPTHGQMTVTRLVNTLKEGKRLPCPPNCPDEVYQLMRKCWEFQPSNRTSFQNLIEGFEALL
In short: (§1)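 Compounds were titrated in 11 points of 3-fold dilution starting at 10 μM or 1 μM. Enzyme (JAK1 4 nM, JAK2 0.2 nM, JAK3 0.3 nM, TYK2 2 nM) and 50 μM peptide reacted for 100 minutes, followed by ADP-to-luminescence detection; IC50 by 4-parameter fit.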

[2] = biological target: T2, human TYK2 kinase domain (JH1) (Homo sapiens, UniProt P29597); assay: JH1 biochemical assay for TYK2 (ADP-Glo kinase assay, recombinant JH1 catalytic domain, JAK3-974 peptide, 10 μM ATP)
T2 construct: recombinantly generated catalytic kinase (also known as JH1) domain of human JAK1, JAK2, JAK3 and TYK2
T2 sequence (P29597 897-1176 limits assumed): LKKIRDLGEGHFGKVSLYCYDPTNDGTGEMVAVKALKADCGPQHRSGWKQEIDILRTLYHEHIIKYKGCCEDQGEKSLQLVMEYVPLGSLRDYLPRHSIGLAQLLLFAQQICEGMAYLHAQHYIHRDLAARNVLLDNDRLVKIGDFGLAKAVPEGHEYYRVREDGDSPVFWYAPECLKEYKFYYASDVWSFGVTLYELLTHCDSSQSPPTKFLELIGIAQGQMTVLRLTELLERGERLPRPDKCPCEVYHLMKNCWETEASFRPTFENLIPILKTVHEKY
In short: as §1

[3] = biological target: JAK1 kinase activity on STAT3 in TF1 cells (Homo sapiens, UniProt P23458); assay: pSTAT3 cell assay (MSD; TF1 cells, 30 ng/mL IL-6 stimulation); format: cell-based; details: 30 ng/mL IL-6, 15 minutes
JAK1 kinase activity on STAT3 in TF1 cells, sequence (P23458 whole entry): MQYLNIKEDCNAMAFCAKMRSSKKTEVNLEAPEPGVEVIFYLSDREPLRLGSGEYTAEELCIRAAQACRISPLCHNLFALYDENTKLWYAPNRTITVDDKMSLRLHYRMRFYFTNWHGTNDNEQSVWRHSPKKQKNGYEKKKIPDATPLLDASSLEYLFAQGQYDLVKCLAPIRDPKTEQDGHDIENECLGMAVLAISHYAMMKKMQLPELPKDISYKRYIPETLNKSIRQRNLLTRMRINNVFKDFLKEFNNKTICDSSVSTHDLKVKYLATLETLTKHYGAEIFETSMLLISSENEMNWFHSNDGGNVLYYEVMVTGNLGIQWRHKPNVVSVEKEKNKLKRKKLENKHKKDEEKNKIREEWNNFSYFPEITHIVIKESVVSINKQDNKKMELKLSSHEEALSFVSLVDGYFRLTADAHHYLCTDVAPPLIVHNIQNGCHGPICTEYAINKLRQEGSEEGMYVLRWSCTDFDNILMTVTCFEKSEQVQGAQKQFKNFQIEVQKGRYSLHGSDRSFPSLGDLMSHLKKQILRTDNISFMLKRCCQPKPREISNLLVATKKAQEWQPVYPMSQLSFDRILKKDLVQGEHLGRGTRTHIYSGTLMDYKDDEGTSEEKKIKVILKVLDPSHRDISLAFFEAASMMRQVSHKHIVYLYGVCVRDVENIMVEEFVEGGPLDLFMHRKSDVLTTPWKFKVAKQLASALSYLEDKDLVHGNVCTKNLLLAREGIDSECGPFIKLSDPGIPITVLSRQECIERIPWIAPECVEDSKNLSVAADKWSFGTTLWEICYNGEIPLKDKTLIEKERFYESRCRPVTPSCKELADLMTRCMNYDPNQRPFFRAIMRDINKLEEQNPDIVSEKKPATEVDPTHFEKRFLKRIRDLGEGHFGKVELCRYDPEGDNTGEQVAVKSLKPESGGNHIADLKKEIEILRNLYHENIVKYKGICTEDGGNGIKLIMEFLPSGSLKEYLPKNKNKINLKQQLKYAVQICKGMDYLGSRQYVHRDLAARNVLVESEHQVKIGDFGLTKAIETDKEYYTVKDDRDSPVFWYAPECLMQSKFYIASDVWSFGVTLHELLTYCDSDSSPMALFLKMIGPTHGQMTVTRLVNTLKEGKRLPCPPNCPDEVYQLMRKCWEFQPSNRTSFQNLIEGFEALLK
In short: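 Serum-starved TF1 cells were pretreated with compound for 1 hour (10-point, four-fold dilutions from 10 μM), then stimulated with IL-6 for 15 minutes. Lysates were assayed for pSTAT3 by MSD with anti-STAT3 antibodies; IC50 came from a 4-parameter logistic fit of normalized percent activity.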

[4] = biological target: Tyk2 kinase activity on STAT4 in NK92 cells (Homo sapiens, UniProt P29597); assay: pSTAT4 cell assay (MSD; NK92 cells, 30 ng/mL IL2 stimulation); format: cell-based; details: 30 ng/mL IL2, 15 minutes
Tyk2 kinase activity on STAT4 in NK92 cells, sequence (P29597 whole entry): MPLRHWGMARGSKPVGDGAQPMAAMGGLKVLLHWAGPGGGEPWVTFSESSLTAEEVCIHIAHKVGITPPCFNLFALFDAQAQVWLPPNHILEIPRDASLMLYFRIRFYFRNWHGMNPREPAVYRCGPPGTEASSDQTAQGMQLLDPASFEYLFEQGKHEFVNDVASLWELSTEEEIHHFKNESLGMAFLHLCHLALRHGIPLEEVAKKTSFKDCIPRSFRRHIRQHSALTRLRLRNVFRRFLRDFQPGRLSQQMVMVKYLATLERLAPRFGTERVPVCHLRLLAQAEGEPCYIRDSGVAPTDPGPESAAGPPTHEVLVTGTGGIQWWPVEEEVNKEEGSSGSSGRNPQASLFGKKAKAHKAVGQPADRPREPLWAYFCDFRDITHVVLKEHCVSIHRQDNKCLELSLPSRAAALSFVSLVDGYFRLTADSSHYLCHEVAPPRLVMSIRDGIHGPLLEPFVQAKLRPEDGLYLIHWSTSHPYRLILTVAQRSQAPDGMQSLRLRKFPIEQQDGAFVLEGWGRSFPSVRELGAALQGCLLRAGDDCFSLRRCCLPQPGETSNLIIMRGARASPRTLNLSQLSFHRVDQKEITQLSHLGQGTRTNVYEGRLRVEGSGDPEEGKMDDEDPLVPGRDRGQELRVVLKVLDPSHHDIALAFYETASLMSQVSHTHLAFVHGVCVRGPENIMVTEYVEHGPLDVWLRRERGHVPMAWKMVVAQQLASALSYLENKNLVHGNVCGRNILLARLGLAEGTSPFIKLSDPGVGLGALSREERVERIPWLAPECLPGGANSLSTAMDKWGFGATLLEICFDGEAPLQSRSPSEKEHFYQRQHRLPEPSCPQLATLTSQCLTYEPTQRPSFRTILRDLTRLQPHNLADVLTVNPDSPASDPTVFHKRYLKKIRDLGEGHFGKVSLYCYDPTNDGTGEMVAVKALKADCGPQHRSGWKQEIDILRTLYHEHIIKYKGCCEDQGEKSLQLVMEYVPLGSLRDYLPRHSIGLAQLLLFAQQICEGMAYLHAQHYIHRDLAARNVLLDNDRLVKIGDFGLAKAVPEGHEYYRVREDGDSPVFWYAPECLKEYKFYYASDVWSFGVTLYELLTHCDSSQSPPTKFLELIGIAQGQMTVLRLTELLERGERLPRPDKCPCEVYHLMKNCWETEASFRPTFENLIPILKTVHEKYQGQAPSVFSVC
In short: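 Serum-starved NK92 cells, which natively express Tyk2 and STAT4, were pretreated for 1 h with a 10-point 4-fold dilution series from 10 μM. They were then stimulated with 30 ng/mL IL2 for 15 min. Phospho-STAT in lysates was quantified by MSD with anti-STAT4 antibodies, and IC50 was obtained from 4-parameter logistic fits.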

[5] = biological target: JAK2 kinase activity on STAT5 in TF1 cells (Homo sapiens, UniProt O60674); assay: pSTAT5 cell assay (MSD; TF1 cells, 30 ng/mL IL-3 stimulation); format: cell-based; details: 30 ng/mL IL-3, 15 minutes
JAK2 kinase activity on STAT5 in TF1 cells, sequence (O60674 whole entry): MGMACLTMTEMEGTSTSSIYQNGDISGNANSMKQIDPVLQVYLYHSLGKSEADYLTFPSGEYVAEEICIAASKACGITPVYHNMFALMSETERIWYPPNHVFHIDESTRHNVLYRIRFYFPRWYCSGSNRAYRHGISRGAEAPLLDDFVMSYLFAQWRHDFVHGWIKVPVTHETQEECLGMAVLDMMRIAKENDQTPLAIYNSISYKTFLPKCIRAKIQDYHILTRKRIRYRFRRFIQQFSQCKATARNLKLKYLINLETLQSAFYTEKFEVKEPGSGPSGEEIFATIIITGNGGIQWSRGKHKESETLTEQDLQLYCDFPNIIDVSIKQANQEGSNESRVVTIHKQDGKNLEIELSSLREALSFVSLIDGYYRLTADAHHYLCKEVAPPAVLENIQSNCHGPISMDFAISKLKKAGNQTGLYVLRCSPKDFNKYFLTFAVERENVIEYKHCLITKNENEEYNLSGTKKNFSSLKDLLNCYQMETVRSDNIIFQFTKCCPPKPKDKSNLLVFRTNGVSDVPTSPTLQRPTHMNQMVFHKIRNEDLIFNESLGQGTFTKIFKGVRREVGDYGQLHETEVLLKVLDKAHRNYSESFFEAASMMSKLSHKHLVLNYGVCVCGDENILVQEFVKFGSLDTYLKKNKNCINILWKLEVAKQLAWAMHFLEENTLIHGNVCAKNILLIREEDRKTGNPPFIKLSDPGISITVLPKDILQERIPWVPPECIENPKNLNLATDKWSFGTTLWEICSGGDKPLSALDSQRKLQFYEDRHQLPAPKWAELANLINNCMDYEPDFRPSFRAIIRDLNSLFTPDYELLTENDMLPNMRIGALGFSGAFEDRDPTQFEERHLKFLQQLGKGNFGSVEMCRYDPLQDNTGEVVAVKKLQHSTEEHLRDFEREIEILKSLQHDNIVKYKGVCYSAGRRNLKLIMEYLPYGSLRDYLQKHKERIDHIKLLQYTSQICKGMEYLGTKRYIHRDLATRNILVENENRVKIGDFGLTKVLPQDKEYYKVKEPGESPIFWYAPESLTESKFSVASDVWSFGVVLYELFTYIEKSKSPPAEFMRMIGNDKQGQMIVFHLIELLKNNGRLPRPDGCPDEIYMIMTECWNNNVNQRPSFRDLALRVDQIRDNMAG
In short: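 Serum-starved TF1 cells with native JAK2/STAT5 were pretreated 1 h with compound (10-point four-fold dilutions from 10 μM), then stimulated 15 min with 30 ng/mL IL-3. pSTAT5 in lysates quantified by MSD immunoassay; normalized percent activity fitted to a 4-parameter logistic curve for IC50.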

[6] = biological target: T3, human JAK2 kinase domain (JH1) (Homo sapiens, UniProt O60674); assay: JH1 biochemical assay for JAK2 (ADP-Glo kinase assay, recombinant JH1 catalytic domain, JAK3-974 peptide, 15 μM ATP)
T3 construct: recombinantly generated catalytic kinase (also known as JH1) domain of human JAK1, JAK2, JAK3 and TYK2
T3 sequence (O60674 849-1124 limits assumed): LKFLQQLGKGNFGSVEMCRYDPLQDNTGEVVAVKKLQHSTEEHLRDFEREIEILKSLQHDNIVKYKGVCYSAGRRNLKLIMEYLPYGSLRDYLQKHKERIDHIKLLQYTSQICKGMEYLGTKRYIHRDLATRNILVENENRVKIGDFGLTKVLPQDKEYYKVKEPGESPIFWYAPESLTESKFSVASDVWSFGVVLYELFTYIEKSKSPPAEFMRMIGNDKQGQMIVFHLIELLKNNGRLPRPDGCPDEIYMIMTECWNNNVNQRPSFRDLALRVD
In short: as §1

[7] = biological target: T4, human JAK3 kinase domain (JH1) (Homo sapiens, UniProt P52333); assay: JH1 biochemical assay for JAK3 (ADP-Glo kinase assay, recombinant JH1 catalytic domain, JAK3-974 peptide, 4 μM ATP)
T4 construct: recombinantly generated catalytic kinase (also known as JH1) domain of human JAK1, JAK2, JAK3 and TYK2
T4 sequence (P52333 822-1111 limits assumed): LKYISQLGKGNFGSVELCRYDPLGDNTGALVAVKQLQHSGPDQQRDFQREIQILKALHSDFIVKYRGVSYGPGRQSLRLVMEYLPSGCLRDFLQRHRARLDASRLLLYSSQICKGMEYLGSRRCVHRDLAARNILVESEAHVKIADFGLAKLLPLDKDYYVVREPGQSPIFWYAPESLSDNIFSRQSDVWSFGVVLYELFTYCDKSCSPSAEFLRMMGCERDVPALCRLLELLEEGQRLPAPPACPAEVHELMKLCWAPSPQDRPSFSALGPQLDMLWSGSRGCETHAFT
In short: as §1

SMILES | IC50 ([1]; JAK1 JH1, ADP-Glo) | IC50 ([2]; TYK2 JH1, ADP-Glo) | IC50 [3] | IC50 [4] | IC50 [5] | IC50 ([6]; JAK2 JH1, ADP-Glo) | IC50 ([7]; JAK3 JH1, ADP-Glo) | IC50 ([1]; JH1 kinase domain, ADP-Glo) | IC50 ([2]; JH1 kinase domain, ADP-Glo) | IC50 ([6]; JH1 kinase domain, ADP-Glo) | IC50 ([7]; JH1 kinase domain, ADP-Glo)
C[C@@H]1CN(c2nc(-c3cnn(C4(C)COC4)c3)cn3ncc(F)c23)C(=O)[C@]1(C#N)C1CC1 [Example 300, (3R,4S)-3-cyclopropyl-1-(3-fluoro-6-(1-(3-methyloxetan-3-yl)-1H-pyrazol-4-yl)pyrazolo[1,5-a]pyrazin-4-yl)-4-methyl-2-oxopyrrolidine-3-carbonitrile] | < 100 nM | < 5 nM | 100 to 1000 nM | > 100 nM | 1000 to 5000 nM | 100 to 1000 nM | < 100 nM |  |  |  | 
C[C@@H]1CN(c2cc(-c3cnn(C)c3)cc3ncsc23)C(=O)[C@]1(C#N)C1CC1 [Example 350, (3R,4S)-3-cyclopropyl-4-methyl-1-(5-(1-methyl-1H-pyrazol-4-yl)benzo[d]thiazol-7-yl)-2-oxopyrrolidine-3-carbonitrile] | < 100 nM | < 5 nM | 100 to 1000 nM | 50 to 100 nM | 1000 to 5000 nM | 100 to 1000 nM | < 100 nM |  |  |  | 
C[C@@H]1CN(c2ccnn3cc(-c4cc[nH]n4)cc23)C(=O)[C@]1(C#N)C1CC1 [Example 66, (3R,4S)-1-(6-(1H-pyrazol-3-yl)pyrrolo[1,2-b]pyridazin-4-yl)-3-cyclopropyl-4-methyl-2-oxopyrrolidine-3-carbonitrile trifluoroacetate] |  |  | 5000 to 10000 nM | > 100 nM | > 10000 nM |  |  | 100 to 1000 nM | 5 to 20 nM | 100 to 1000 nM | 100 to 1000 nM
CCn1cc(-n2nc(N3C[C@@H](C)[C@@](C#N)(C4CC4)C3=O)c3ccncc32)cn1 [Example 277, (3R,4S)-3-cyclopropyl-1-(1-(1-ethyl-1H-pyrazol-4-yl)-1H-pyrazolo[3,4-c]pyridin-3-yl)-4-methyl-2-oxopyrrolidine-3-carbonitrile] | 100 to 1000 nM | < 5 nM | 1000 to 5000 nM | > 100 nM | 5000 to 10000 nM | 100 to 1000 nM | 100 to 1000 nM |  |  |  | 
C[C@@H]1CN(c2ccnn3c(F)c(-c4cnn(C)c4)cc23)C(=O)[C@]1(C#N)C1CC1 [Example 28, (3R,4S)-3-cyclopropyl-1-(7-fluoro-6-(1-methyl-1H-pyrazol-4-yl)pyrrolo[1,2-b]pyridazin-4-yl)-4-methyl-2-oxopyrrolidine-3-carbonitrile] |  |  | > 10000 nM | > 100 nM | > 10000 nM |  |  | 1000 to 5000 nM | 50 to 100 nM | 5000 to 10000 nM | > 10000 nM
Cc1nc(-c2cn3nccc3c(N3C[C@@H](C)[C@@](C#N)(C4CC4)C3=O)n2)cs1 [Example 214, (3R,4S)-3-cyclopropyl-4-methyl-1-(6-(2-methylthiazol-4-yl)pyrazolo[1,5-a]pyrazin-4-yl)-2-oxopyrrolidine-3-carbonitrile] |  |  | 1000 to 5000 nM | > 100 nM | 5000 to 10000 nM |  |  | 100 to 1000 nM | 5 to 20 nM | 100 to 1000 nM | 100 to 1000 nM
C[C@@H]1CN(c2ccnc3cc(-c4cnn(C5CC5)c4)oc23)C(=O)[C@]1(C#N)C1CC1 [Example 347, (3R,4S)-3-cyclopropyl-1-(2-(1-cyclopropyl-1H-pyrazol-4-yl)furo[3,2-b]pyridin-7-yl)-4-methyl-2-oxopyrrolidine-3-carbonitrile] | 100 to 1000 nM | < 5 nM | 1000 to 5000 nM | > 100 nM | 5000 to 10000 nM | 100 to 1000 nM | 100 to 1000 nM |  |  |  | 
C[C@@H]1CN(c2ccnn3cc(-c4cnn(C5CC6(COC6)C5)c4)cc23)C(=O)[C@]1(C#N)C1CC1 [Example 319, (3R,4S)-1-(6-(1-(2-oxaspiro[3.3]heptan-6-yl)-1H-pyrazol-4-yl)pyrrolo[1,2-b]pyridazin-4-yl)-3-cyclopropyl-4-methyl-2-oxopyrrolidine-3-carbonitrile] | < 100 nM | < 5 nM | 100 to 1000 nM | 20 to 50 nM | 100 to 1000 nM | < 100 nM | < 100 nM |  |  |  | 
